Assay results as given in patent US20190290656A1, “PT(IV) PRODRUGS” (YISSUM RESEARCH DEVELOPMENT COMPANY OF THE HEBREW …, priority 2015, published 2019).
Like-named read-outs stand apart in the source and are kept apart here.

Key:
[1] = tested on: A549 cells; experiment: MTT cytotoxicity assay, A549; format: cell-based, human; conditions: for IC50: A549, 72 h exposure, MTT, read-out: IC50 (median growth inhibitory concentration)
Procedure: (§1) Cisplatin (CDDP) and oxaliplatin (OXP) were dissolved just before the experiment in a 0.9% NaCl solution.
(§2) Human prostate adenocarcinoma (PC3) cells were obtained from European Collection of Cell Cultures (ECACC, Salisbury, UK). Human ovarian cancer cell lines A2780 and its cisplatin resistant variant, A2780cisR, were kindly provided by Prof.
(§3) Triplicate cultures were established for each treatment.

[2] = tested on: HCT-15 cells; experiment: MTT cytotoxicity assay, HCT-15; format: cell-based, human; conditions: for IC50: HCT-15, 72 h exposure, MTT (Table 1), read-out: IC50 (median growth inhibitory concentration)
Procedure: (§4) Cisplatin (CDDP) and oxaliplatin (OXP) were dissolved just before the experiment in a 0.9% NaCl solution. […]
(§5) Cancer Res. 1988, 48, 589-601]. […] Triplicate cultures were established for each treatment.
(§6) MTT assay. […] Triplicate cultures were established for each treatment.
(§7) The two dimers, 3a and 3b, as well as compounds 1a and 2a were screened against six human cancer cell lines representative of lung (H157), colon (HCT-15), cervical (A431), ovarian (2008) and pancreatic (PSN1) cancers, along with melanoma (A375). Cytotoxicity was evaluated by means of the MTT test after 72 h of treatment and the in vitro antitumor potential of newly synthesized derivatives was compared to that of the reference metallo-drugs CDDP and OXP.

[3] = tested on: MCF-7 cells; experiment: Nuclear DNA fragmentation ELISA, MCF-7; format: cell-based, human; conditions: MCF-7, 24 h, IC50 concentrations
Text: FIGS. 4A-4C describe: FIG. 4A—Nuclear DNA fragmentation. […] Quantitative estimation of DNA fragmentation was obtained with an ELISA test. Data are the means of five independent experiments. Error bars indicate SD. […] FIG. 4C—Caspase activity. […] Data are the means of at least three independent experiments. Error bars indicate SD.
To gain more insights into the mode of action of newly synthesized Pt(IV) derivatives, compounds 1 and 6 were chosen for further experiments. In particular, their capacity to induce apoptosis against human breast MCF-7 cells treated with equitoxic concentrations (IC50 values) of these drugs was evaluated and compared. Nuclear DNA fragmentation and apoptosome complex formation are critical steps in the apoptotic process. […] Apoptotic cell death induction was confirmed through a Hoechst 33342 staining.

[4] = tested on: A375 cells; experiment: MTT cytotoxicity assay, A375; format: cell-based, human; conditions: A375, 72 h exposure, MTT (Table 1); read-out: IC50 (median growth inhibitory concentration)
Procedure: as §4, §5, §6, §7

[5] = tested on: BxPC3 cells; experiment: MTT cytotoxicity assay, BxPC3; format: cell-based, human; conditions: for times more effective/potent than cisplatin: BxPC3; for IC50: BxPC3, 72 h exposure, MTT, read-out: IC50 (median growth inhibitory concentration)
[6] = tested on: MCF-7 cells; experiment: MTT cytotoxicity assay, MCF-7; format: cell-based, human; conditions: for times more effective/potent than cisplatin: MCF-7; for IC50: MCF-7, 72 h exposure, MTT, read-out: IC50 (median growth inhibitory concentration)
Procedure: as §1, §2, §3

[7] = tested on: A2780 cells; experiment: MTT cytotoxicity assay, A2780; format: cell-based, human; conditions: for IC50: A2780, 72 h exposure, MTT, read-out: IC50 (median growth inhibitory concentration)
Procedure: (§8) Platinum(IV) complexes were dissolved in DMSO to stock solutions of 1 mg/mL just before the experiment, and a calculated amount of drug solution was added to the cell growth medium to a final solvent concentration of 0.5%, which had no discernible effect on cell killing. Cisplatin (CDDP) and oxaliplatin (OXP) were dissolved just before the experiment in a 0.9% NaCl solution.
as §2, §5

[8] = tested on: Lewis lung carcinoma (LLC); experiment: In vivo efficacy study, Lewis lung carcinoma mouse model; design: species or system C57BL mice
Procedure: A preliminary in vivo efficacy study was carried out on a mouse model (see Table 3 below):
Lewis lung carcinoma (LLC) was implanted i.m. (2·10^6 cells inoculum) into the right hind leg of 8-week old inbred C57BL mice (24±3 g body weight). Chemotherapy was delayed until the tumor became visible (day 7).

[9] = tested on: PC3 cells; experiment: MTT cytotoxicity assay, PC3; format: cell-based, human; conditions: PC3, 72 h exposure, read-out: IC50 (median growth inhibitory concentration)
Procedure: as §1, §2, §3

[10] = tested on: nine cancer cell lines; experiment: MTT cytotoxicity, over the nine cancer cell lines; conditions: for average fold more potent than cisplatin: average over cell lines
[11] = tested on: A498 cells; experiment: MTT cytotoxicity assay, A498; format: cell-based, human; conditions: A498, 72 h exposure, read-out: IC50 (median growth inhibitory concentration)
Procedure: as §8, §2, §5

[12] = tested on: Histone deacetylase (HDAC); experiment: Histone deacetylase assay (Fluor-de-Lys) in MCF-7 cells; format: cell-based, human; conditions: for IC50 for cellular inhibition of HDAC activity (in words): MCF-7, 24 h, increasing concentrations; for inhibition of HDAC activity: MCF-7, 24 h incubation with IC50 concentrations
Procedure: Histone deacetylase activity was determined using Fluor-de-Lys® HDAC fluorometric activity assay kit (Enzo Life Sciences International, Inc., Plymount Meeting, Pa., U.S.A.). […] Fluorescence was measured using a Fluoroskan Ascent FL (Labsystem, Finland) plate reader, with excitation at 360 nm and emission at 460 nm. For comparison purpose, the HDAC activity was also measured in nuclear extracts of MCF-7-treated cells by means of the same fluorometric activity assay kit. In this latter case, MCF-7 nuclear extracts were obtained as follow: cell pellets were re-suspended in lysis buffer [Tris.HCl (10 mM, pH 8.0), KCl (60 mM), EDTA (1.2 mM), DTT (1 mM), PMSF (0.05 mM), NP-40 (0.05%)] and kept on ice for 10 min. Subsequently, samples were centrifuged at 1000 g and re-suspended in the nuclear extraction buffer [Tris.HCl (20 mM, (pH 8.0), NaCl (420 mM), MgCl2 (0.7 mM), EDTA (0.25 mM), glycerol (25%)] for 30 min at 4° C., and then centrifuged at 15000 g for 15 min at 4° C.
The complexes described here were specifically designed to release either VPA of PhB inside the cells in the hope that they will inhibit HDAC activity paving the way for more efficient DNA platination. Thus, in addition to measuring the levels of DNA platination, we also measured the ability of these pro-drugs to inhibit HDAC activity in cells. […] For comparison purposes, the HDAC inhibitory effect determined by tested complexes was also assayed in isolated nuclei of MCF-7 treated cells (FIG. 3B).
The HDAC activity was determined by the Fluor de Lys® Fluorescent Cellular Activity Assay (Enzo Life Sciences).
Also, MCF-7 cells were incubated for 24 h with increasing concentrations of compounds I-VIII and their HDAC activity was determined. The IC50 values for the inhibition of HDAC activity in the cells are depicted in FIG. 3C.

[13] = tested on: A2780cisR cells; experiment: MTT cytotoxicity assay, A2780cisR (cisplatin resistant); format: cell-based, human; conditions: for IC50: 72 h exposure, MTT, read-out: IC50 (median growth inhibitory concentration)
Procedure: as §8, §2, §5

[14] = octanol/water partition, shake-flask method; format: physicochemical
Procedure: To quantify the hydrophobicity of the platinum complexes, partition coefficients (log P) values for octanol/water partition were measured using the shake-flask method.

[15] = daily dose 20 mg kg^-1 orally, day 7-14, LLC in C57BL mice
[16] = read-out: average IC50 values for the nine cancer cell lines, mean over nine cell lines, 72 h MTT

Row | SMILES | IC50 [1] [nM] | IC50 [2] [nM] | times higher induction of nucleosome formation compared with cisplatin [3] [fold] | IC50 [4] [nM] | times more effective/potent than cisplatin [5] [fold] | IC50 [5] [nM] | times more effective/potent than cisplatin [6] | IC50 [6] [nM] | IC50 [7] [nM] | IC50 [9] [nM] | IC50 [10, 16] [nM] | IC50 [11] [nM] | IC50 for cellular inhibition of HDAC activity (in words) [12] | inhibition of HDAC activity [12] | IC50 ([13]; A2780cisR) [nM] | also measured
1 | CCCC(CCC)C(=O)[O][Pt]([Cl])([Cl])[O]C(=O)C(CCC)CCC.N.N [I, Ctc-Pt(NH3)2(C8H15O2)2Cl2]] | 1120 ± 320 | 810 ± 120 | 1.5 | 1250 ± 250 | ~10 | 1130 ± 140 | about 19 fold | 910 ± 300 | 250 ± 90 | 2130 ± 450 | 1150 | 2430 ± 720 | highest inhibitory effect | ~65% | 300 ± 100 | times more effective than cisplatin ([2]; HCT-15): ~14 fold; fold more potent than cisplatin ([7]; A2780): 11 fold; Average tumor weight (mean ± SD, g) [8, 15]: 0.179 ± 0.07 g; Inhibition of tumor growth (%) [8, 15]: 68.21%; fold more potent than the mono-VPA monoacetato analog ([10]; average of the nine cell lines): 4.6 fold; average fold more potent than cisplatin [10]: 8 fold; fold more potent/effective than cisplatin ([13]; A2780cisR): 46 fold; resistance factor ([13]; ratio IC50 resistant (A2780cisR) / sensitive (A2780) cells): 1.2
2 | [NH2][Pt]([NH2])([Cl])([Cl])([O]C(=O)CCCc1ccccc1)[O]C(=O)CCCc1ccccc1 [Compound VI, ctc-[Pt(NH3)2(C10H11O2)2Cl2]] | 170 ± 40 | 310 ± 40 | 2 | 160 ± 20 | ~60 | 190 ± 10 | ~100 fold | 180 ± 30 | 140 | 410 ± 60 | 230 | 430 ± 20 | highest inhibitory effect | approximately 70% | 120 | fold more potent than cisplatin ([1]; A549): ~50 fold; in vivo efficacy by oral administration (in words) ([8]; oral vs cisplatin ip): nearly as effective in this model as cisplatin; average fold more potent than cisplatin ([10]; listed as Ctc-[Pt(NH3)2(PhB)2Cl2]): 50 fold; average fold more potent than cisplatin ([10]; listed as ctc-[Pt(NH3)2(PhB)2Cl2]): about 24 fold; fold improvement in potency on replacing both VPA ligands with PhB (VI vs I) ([10]; on the average): ~5 fold; fold more potent than the mono-PhB monoacetate complex ([10]; range over cell lines): 4.6-53 fold; IC50 ([10]; read-out: range of IC50 values over the cell lines, lowest-highest over nine cell lines): 120 to 430 nM; Log P [14]: −0.73 ± 0.05
